Experimental data published in patent publication US20070093520A1, “Method of treatment of diarrhea-predominant irritable bowel syndrome in a subject” (priority 2005, published 2007).
Like-named read-outs stand apart in the source and are kept apart here.

System: diarrhea-predominant IBS subjects
Format: in vivo, human
Settings: for TEAE incidence: constipation / TEAE incidence: nausea: 3007 Study
Method: The study was performed in approximately 150 study centers. Approximately 1600 eligible subjects were to be given cilansetron 2 mg TID. At Visit 1, pre-treatment assessments were conducted. […] Subjects were to return to the study site one month later for Visit 3 (Day 31) for their first interim assessment. […] All subjects who discontinued from the study were to have the same post-study assessments required at Visit 7 performed at their early termination visit. […]
Stool specimens were analyzed at every visit for occult blood. An independent GERB had been established to provide advice on GI AEs during the course of the study.
Adverse events were assessed at Baseline, at each clinic visit, and at the end of the study (Month 12 or the early termination visit). All AEs, which occurred during the study were followed up in accordance with good medical practice until resolved or judged no longer clinically significant, or if a condition was chronic, until fully characterized. Adverse events could occur in the specified follow-up period and, regardless of the interval since the last administration of the study medication, were treated in the same manner as an AE which occurred during the treatment with study medication. Each AE was evaluated for duration, severity, seriousness, and causal relationship to the investigational drug. The action taken and the outcome were also recorded.
Specifically, subjects who were lost to follow-up and had no post-Baseline contact with the site were excluded from the Safety population. The subjects who discontinued from the study due to lost to follow-up were identified based on the information collected on the study termination CRF page.
After the pretreatment assessment at Visit 1 (Days […] to −3), subjects were to return to the study site for a Baseline assessment and start the treatment at Visit 2 (Day 1).
For the by time-interval analyses of disposition, prevalence of AEs, and of markedly abnormal and predefined changes in laboratory values, vital signs, and ECGs, the following interval windows were used:
Adverse events that were already present prior to the first dose of cilansetron study medication but increased in severity afterwards were considered as treatment-emergent.
The 5% cutoff point was based on the incidence within higher level terms.
Subjects were counted at most once for each primary system organ class and preferred term. Serious AEs that resolved prior to receiving study medication or occurred more than 30 days after the last dose of study medication were not included in the incidence tables. A listing of all SAEs is presented; SAEs with onset prior to receiving study medication or more than 30 days after discontinuation of study medication were flagged. The listing presents lower level term and preferred term of the SAE, severity, action taken, outcome, and relationship of the SAE, start and stop date of the SAE, study day of onset of the SAE, age, race, and sex.

[1] = 2 mg, Safety Population, 3008, under Neoplasms Benign, Malignant and Unspecified
[2] = 2 mg, Safety Population, 3008, under Pregnancy, Puerperium and Perinatal Conditions
[3] = 2 mg, Safety Population, 3008, under Social Circumstances
[4] = 2 mg, Safety Population, 3008, under Surgical and Medical Procedures
[5] = 2 mg, Safety Population, 3008, under Vascular Disorders

Structure (SMILES): Cc1nccn1C[C@H]1CCc2c(c3cccc4c3n2CCC4)C1=O [cilansetron, (R)-(−)-4,5,6,8,9,10-hexahydro-10-[(2-methyl-1H-imidazol-1-yl)methyl]-11H-pyrido-[3,2,1-jk]-carbazol-11-one]
- TEAE incidence: Haemangioma of Liver [1]: 2 (<1%) n (%)
- TEAE incidence: Hepatobiliary Neoplasms Benign [1]: 2 (<1%) n (%)
- TEAE incidence: Large Cell Carcinoma of the Respiratory Tract Stage Unspecified [1]: 1 (<1%) n (%)
- TEAE incidence: Lip and Oral Cavity Neoplasms Benign [1]: 1 (<1%) n (%)
- TEAE incidence: Lipoma NOS [1]: 2 (<1%) n (%)
- TEAE incidence: Lung Adenocarcinoma NOS [1]: 1 (<1%) n (%)
- TEAE incidence: Non-Hodgkin's Lymphoma NOS [1]: 1 (<1%) n (%)
- TEAE incidence: Non-Hodgkin's Lymphomas NEC [1]: 1 (<1%) n (%)
- TEAE incidence: Non-Small Cell Neoplasms Malignant of the Respiratory Tract Cell Type Specified [1]: 2 (<1%) n (%)
- TEAE incidence: Pancreatic Carcinoma NOS [1]: 1 (<1%) n (%)
- TEAE incidence: Pancreatic Neoplasms Malignant (Excl Islet Cell and Carcinoid) [1]: 1 (<1%) n (%)
- TEAE incidence: Rectal Cancer NOS [1]: 1 (<1%) n (%)
- TEAE incidence: Rectal Neoplasms Malignant [1]: 1 (<1%) n (%)
- TEAE incidence: Salivary Gland Adenoma [1]: 1 (<1%) n (%)
- TEAE incidence: Soft Tissue Neoplasms Benign NEC [1]: 2 (<1%) n (%)
- TEAE incidence: Urinary Tract Neoplasms Benign [1]: 1 (<1%) n (%)
- TEAE incidence: Urinary Tract Neoplasms Unspecified Malignancy NEC [1]: 1 (<1%) n (%)
- TEAE incidence: Uterine Fibroids* [1]: 3 (<1%) n (%)
- TEAE incidence: Uterine Neoplasms Benign* [1]: 3 (<1%) n (%)
- TEAE incidence: Normal Pregnancy, Labour and Delivery* [2]: 2 (<1%) n (%)
- TEAE incidence: Pregnancy NOS* [2]: 2 (<1%) n (%)
- TEAE incidence: Genital Haemorrhage NOS (2 mg, Safety Population, 3008, under Reproductive Tract Disorders NEC (Excl Neoplasms)): 1 (<1%) n (%)
- TEAE incidence: Age Related Issues [3]: 3 (<1%) n (%)
- TEAE incidence: Menopause* [3]: 3 (<1%) n (%)
- TEAE incidence: Bone Therapeutic Procedures NEC [4]: 1 (<1%) n (%)
- TEAE incidence: Fallopian Tube Therapeutic Procedures* [4]: 1 (<1%) n (%)
- TEAE incidence: Osteosynthesis [4]: 1 (<1%) n (%)
- TEAE incidence: Tubal Ligation* [4]: 1 (<1%) n (%)
- TEAE incidence: Bruising, Ecchymosis and Purpura [5]: 1 (<1%) n (%)
- TEAE incidence: Circulatory Collapse and Shock [5]: 1 (<1%) n (%)
- TEAE incidence: Essential Hypertension [5]: 1 (<1%) n (%)
- TEAE incidence: Hypertension Aggravated [5]: 4 (<1%) n (%)
- TEAE incidence: Hypertension NOS [5]: 15 (1%) n (%)
- TEAE incidence: Non-Site Specific Vascular Disorders NEC [5]: 1 (<1%) n (%)
- TEAE incidence: Orthostatic Hypotension [5]: 3 (<1%) n (%)
- TEAE incidence: Peripheral Embolism and Thrombosis [5]: 1 (<1%) n (%)
- TEAE incidence: Periphlebitis [5]: 1 (<1%) n (%)
- TEAE incidence: Petechiae [5]: 1 (<1%) n (%)
- TEAE incidence: Phlebitis NEC [5]: 4 (<1%) n (%)
- TEAE incidence: Phlebitis NOS [5]: 2 (<1%) n (%)
- TEAE incidence: Phlebitis Superficial [5]: 1 (<1%) n (%)
- TEAE incidence: Shock [5]: 1 (<1%) n (%)
- TEAE incidence: Varicose Veins NOS [5]: 1 (<1%) n (%)
- TEAE incidence: Varicose Veins Non-Site Specific [5]: 1 (<1%) n (%)
- TEAE incidence: Vascular Disorder NOS [5]: 1 (<1%) n (%)
- TEAE incidence: Vascular Hypertensive Disorders NEC [5]: 20 (1%) n (%)
- TEAE incidence: Vascular Hypotensive Disorders [5]: 3 (<1%) n (%)
- TEAE incidence: Venous Thrombosis Deep Limb [5]: 1 (<1%) n (%)
- TEAE incidence: constipation (all subjects): 15%
- TEAE incidence: nausea (all subjects): 5%
- TEAE incidence: constipation (females): 19%
- TEAE incidence: nausea (females): 7%
- TEAE incidence: constipation (males): 11%
- TEAE incidence: nausea (males): 3%
- TEAE incidence: Abdominal Discomfort (Cilansetron 2 mg, N=1454): 6 (<1%) n (%)
- TEAE incidence: Abdominal Distension (Cilansetron 2 mg, N=1454): 57 (4%) n (%)
- TEAE incidence: Abdominal Findings Abnormal (Cilansetron 2 mg, N=1454): 2 (<1%) n (%)
- TEAE incidence: Abdominal Hernias, Site Unspecified (Cilansetron 2 mg, N=1454): 1 (<1%) n (%)
- TEAE incidence: Abdominal Pain Aggravated (Cilansetron 2 mg, N=1454): 8 (<1%) n (%)
- TEAE incidence: Abdominal Pain Lower (Cilansetron 2 mg, N=1454): 21 (1%) n (%)
- TEAE incidence: Abdominal Pain Upper (Cilansetron 2 mg, N=1454): 50 (3%) n (%)
- TEAE incidence: Abdominal Rigidity (Cilansetron 2 mg, N=1454): 1 (<1%) n (%)
- TEAE incidence: Abnormal Sleep-Related Events (Cilansetron 2 mg, N=1454): 1 (<1%) n (%)
- TEAE incidence: Abscess Limb (Cilansetron 2 mg, N=1454): 1 (<1%) n (%)
- TEAE incidence: Abscess NOS (Cilansetron 2 mg, N=1454): 1 (<1%) n (%)
- TEAE incidence: Absence Seizures (Cilansetron 2 mg, N=1454): 1 (<1%) n (%)
- TEAE incidence: Acute and Chronic Pancreatitis (Cilansetron 2 mg, N=1454): 1 (<1%) n (%)
- TEAE incidence: Aerophagia (Cilansetron 2 mg, N=1454): 1 (<1%) n (%)
- TEAE incidence: Alanine Aminotransferase Increased (Cilansetron 2 mg, N=1454): 19 (1%) n (%)
- TEAE incidence: Anal Abscess (Cilansetron 2 mg, N=1454): 1 (<1%) n (%)
- TEAE incidence: Anal Discomfort (Cilansetron 2 mg, N=1454): 3 (<1%) n (%)
- TEAE incidence: Anal Fissure (Cilansetron 2 mg, N=1454): 5 (<1%) n (%)
- TEAE incidence: Anal Haemorrhage (Cilansetron 2 mg, N=1454): 2 (<1%) n (%)
- TEAE incidence: Anal Ulcer (Cilansetron 2 mg, N=1454): 1 (<1%) n (%)
- TEAE incidence: Anal and Colorectal Neoplasms NEC (Cilansetron 2 mg, N=1454): 1 (<1%) n (%)
- TEAE incidence: Anal and Rectal Disorders NEC (Cilansetron 2 mg, N=1454): 8 (<1%) n (%)
- TEAE incidence: Anal and Rectal Pains (Cilansetron 2 mg, N=1454): 7 (<1%) n (%)
- TEAE incidence: Anal and Rectal Signs and Symptoms (Cilansetron 2 mg, N=1454): 7 (<1%) n (%)
- TEAE incidence: Anal and Rectal Ulcers and Perforation (Cilansetron 2 mg, N=1454): 2 (<1%) n (%)
- TEAE incidence: Antibiotic Associated Colitis (Cilansetron 2 mg, N=1454): 1 (<1%) n (%)
- TEAE incidence: Aphthous Stomatitis (Cilansetron 2 mg, N=1454): 1 (<1%) n (%)
- TEAE incidence: Appendiceal Abscess (Cilansetron 2 mg, N=1454): 1 (<1%) n (%)
- TEAE incidence: Appendicitis (Cilansetron 2 mg, N=1454): 1 (<1%) n (%)
- TEAE incidence: Arterial Pressure NOS Increased (Cilansetron 2 mg, N=1454): 1 (<1%) n (%)
- TEAE incidence: Aspartate Aminotransferase Increased (Cilansetron 2 mg, N=1454): 16 (1%) n (%)
- TEAE incidence: Benign Oral Cavity Neoplasms (Cilansetron 2 mg, N=1454): 1 (<1%) n (%)
- TEAE incidence: Bilirubin Urine (Cilansetron 2 mg, N=1454): 1 (<1%) n (%)
- TEAE incidence: Blood Alkaline Phosphatase NOS Increased (Cilansetron 2 mg, N=1454): 7 (<1%) n (%)
- TEAE incidence: Blood Bilirubin Increased (Cilansetron 2 mg, N=1454): 5 (<1%) n (%)
- TEAE incidence: Blood Bilirubin Unconjugated Increased (Cilansetron 2 mg, N=1454): 1 (<1%) n (%)
- TEAE incidence: Blood Cholesterol Increased (Cilansetron 2 mg, N=1454): 25 (2%) n (%)
- TEAE incidence: Blood Creatine Phosphokinase Increased (Cilansetron 2 mg, N=1454): 31 (2%) n (%)
- TEAE incidence: Blood Creatinine Increased (Cilansetron 2 mg, N=1454): 1 (<1%) n (%)
- TEAE incidence: Blood Glucose Increased (Cilansetron 2 mg, N=1454): 2 (<1%) n (%)
- TEAE incidence: Blood Potassium Increased (Cilansetron 2 mg, N=1454): 3 (<1%) n (%)
- TEAE incidence: Blood Pressure (Cilansetron 2 mg, N=1454): 1 (<1%) n (%)
- TEAE incidence: Blood Pressure Increased (Cilansetron 2 mg, N=1454): 5 (<1%) n (%)
- TEAE incidence: Blood Thyroid Stimulating Hormone Increased (Cilansetron 2 mg, N=1454): 2 (<1%) n (%)
- TEAE incidence: Blood Triglycerides Increased (Cilansetron 2 mg, N=1454): 11 (<1%) n (%)
- TEAE incidence: Blood Urea Increased (Cilansetron 2 mg, N=1454): 2 (<1%) n (%)
- TEAE incidence: Blood Uric Acid Increased (Cilansetron 2 mg, N=1454): 7 (<1%) n (%)
- TEAE incidence: Blood Urine Present (Cilansetron 2 mg, N=1454): 11 (<1%) n (%)
- TEAE incidence: Blood in Stool (Cilansetron 2 mg, N=1454): 13 (<1%) n (%)
- TEAE incidence: Body Temperature Decreased (Cilansetron 2 mg, N=1454): 2 (<1%) n (%)
- TEAE incidence: Body Temperature Increased (Cilansetron 2 mg, N=1454): 5 (<1%) n (%)
- TEAE incidence: Body Tinea (Cilansetron 2 mg, N=1454): 2 (<1%) n (%)
- TEAE incidence: Bowel Sounds Abnormal (Cilansetron 2 mg, N=1454): 1 (<1%) n (%)
- TEAE incidence: Bronchitis Acute NOS (Cilansetron 2 mg, N=1454): 24 (2%) n (%)
- TEAE incidence: Bronchitis Chronic NOS (Cilansetron 2 mg, N=1454): 2 (<1%) n (%)
- TEAE incidence: Bronchitis NOS (Cilansetron 2 mg, N=1454): 27 (2%) n (%)
- TEAE incidence: Bronchopneumonia NOS (Cilansetron 2 mg, N=1454): 1 (<1%) n (%)
- TEAE incidence: Burning Sensation NOS (Cilansetron 2 mg, N=1454): 1 (<1%) n (%)
- TEAE incidence: Campylobacter Gastroenteritis (Cilansetron 2 mg, N=1454): 1 (<1%) n (%)
